Read-outs that look alike come from different tables or passages of the source. Marks after values point to notes of the source that are not given here.

For data set [1] the following is noted: normoglycemic and normotensive animal model; cited from earlier work. An excerpt:
It is necessary to evaluate the ACE-inhibitor effect on the blood glucose level of hyperpietics simultaneously since blood sugar was positively correlated with blood pressure (systolic and diastolic), and this correlation was independent of common associations with age, body mass index (BMI) and heart rate.

The next data set relates to SHR. Set-up: method as in 5 sources, ref 30 = [30]; PMID 7673515; doi:10.3168/jds.S0022-0302(95)76745-5; 30 Nakamura Y , Yamamoto N , Sakai K , Takano T ( 1995 ) Antihypertensive effect of sour milk and peptides isolated from it that are inhibitors to angiotensin I-converting enzyme . J Dairy Sci 78 : 12 ||| ref 31 = [31]; PMID 8880454; doi:10.3168/jds.S0022-0302(96)76487-1; 31 Maeno M , Yamamoto N , Takano T ( 1996 ) Identification of an antihypertensive peptide from casein hydrolysate produced by a proteinase from Lactobacillus helveticus CP790 . J Dairy Sci 79 : 1316 – ||| ref 32 = [32]; PMID 9891260; doi:10.3168/jds.S0022-0302(98)75878-3; 32 Abubakar A , Saito T , Kittazawa H , Kawai Y , Itoh T ( 1998 ) Structural analysis of new antihypertensive peptides derived from cheese whey protein by proteinase K digestion . J Dairy Sci 81 : 313 ||| ref 33 = [33]; PMID 10794501; doi:10.1016/s0024-3205(00)00471-9; 33 Nurminen ML , Sipola M , Kaarto H , Pihlanto-Leppälä A , Piilola K , et al ( 2000 ) α-Lactorphin lowers blood pressure measured by radiotelemetry in normotensive and spontaneously hypertensive rats ||| ref 34 = [34]; 34 Miguel M , Contreras MM , Recio I , Aleixandre A ( 2009 ) ACE-inhibitory and antihypertensive properties of a bovine casein hydrolysate . Food Chemistry 112 : 211 – 214 . The settings on record: cited from earlier work.

In data set [2] the test system is spontaneously hypertensive rats (SHR/Slac). The data set can be described thus: Systolic blood pressure of SHR after single intragastric administration (tail-cuff). It counts as in vivo, rat. The following applies: for dose-dependence of the lowering SBP effect: 0.75 versus […] BW, relative lowering SBP rate. The procedure:
The spontaneously hypertensive, strain SHR/Slac male rats (Production Permit Number: SCXK (Shanghai) 2007-0005; Body weight, average ∼400 g; Age, 20 weeks old), were purchased from Shanghai SLAC Laboratory Animal Co. Ltd. (Shanghai, China). The SHR were housed in cages and maintained under specific pathogen-free conditions on a cycle of 12 h of light and 12 h of darkness at Center of Experimental Animal, School of Pharmacy, Shanghai Jiao Tong University (Use Permit Number: SYXK (Shanghai) 2007-0025). The temperature and humidity in the cages were controlled at 24±1°C and 60±5%, respectively. SHRs were acclimatized for 7 days prior to experimentation. The rats were fed a standard laboratory diet (SLACOM; Shanghai, China), and tap water was freely available. After the hexapeptide water-solution (dose, 1.5 mg/kg body weight) injection with intragastric administration in six SHR, the systolic blood pressure (SBP) of each rat was measured by the tail-cuff method with a programmable electrosphygmomanometer (model SoftronBP-98A; Softron Beijing Incorporated, Beijing, China) at 1 h interval. A heater lamp was on the tail to improve signal quality. To obtain an accurate SBP reading, rats were first habituated to the SBP measurement device. Definitive measurements began when rats remained unperturbed into the chamber throughout the inflation-deflation cycles. The SBP in each SHR with administration of distilled water (2 mL) was used as the control value. The data are expressed as means and standard errors (n = 6).
To evaluate whether the lowering SBP effect was the dose-dependence relative to the test peptides, the SHR were also treated with 0.75 mg/kg BW peptides water-solution as above program. And the relative lowering SBP effect was calculated as the following equation (Eq.2): [drawing 2] (Eq.2) where SBPinitial is the initial SBP values of SHR right before the peptide administration, SBPlowest is the lowest SBP value obtained within 5 h after the administration with the tested peptides.

For a further data set, the system named is ACE from rabbit lungs. In words: ACE inhibitory activity in vitro (HHL hydrolysis, HPLC of hippuric acid). It counts as biochemical. The settings on record: 10 µmol/L peptide, crude ACE extract from rabbit lung, 5 mmol/L HHL, 37°C, 10 min pre-incubation + 20 min, RP-HPLC 228 nm, mean ± SD. The procedure:
ACE extracts were prepared and its activity was determined according to the method of Nakamura et al. and Wu & Ding with some modifications. Briefly, the fresh rabbit lung without connective tissues was cut into pieces and washed with precooled NaCl (0.7%) to get rid of blood. The tissue pieces were homogenized in precooled 5-fold the volume of fresh rabbit lung weight (v/w, mL/g) of 100 mM sodium borate buffer (BBS) (pH 8.3). The mixtures were then filtrated with 3-ply gauze followed by ultracentrifuged for 40 min (40,000 g, at 4°C). The supernatant as crude ACE extracts was retained and stored at 5°C [24].
The ACE activity was assayed using the method described by Wu & Ding. It was based on the hydrolysis of hippuryl-L-histidyl-L-leucine (HHL) by ACE to hippuric acid (HA) and histidyl-leucine (HL) as products. The HA release from HHL was directly related to the ACE activity. One unit (U) of ACE was defined as the amount of enzyme catalyzing the release of 1 µmol/L HA from the substrate HHL per minute at 37°C. Briefly, 30 µL of ACE crude extracts were mixed with 100 µL of BBS (pH 8.3). The mixture was incubated at 37°C for 10 min. Then, 200 µL of 5 mmol/L HHL solution substrate were added and the reaction mixture was incubated at 37°C for 20 min. The reaction was stopped by the addition of 250 µL of 1 mol/L HCl. 10 µL of solution were analyzed by reversed-phase HPLC and detected at the wavelength of λ = 228 nm. The column was eluted with 20% acetonitrile (in water, v/v) containing 0.1% (v/v) TFA on AKATA purifier 10 with a flow rate of 1.0 mL/min. The blank experiment was executed with premixing 250 µL of 1 mol/L HCl and 30 µL of ACE crude extracts to inhibit the activity of ACE.
Evaluation of ACE inhibitory activity was assayed using the same method described in above section with some modifications. Briefly, 2 µL of ACE crude extracts were mixed with 80 µL of 10 µmol/L each selected peptide solution. The mixture was incubated at 37°C for 10 min, after which 200 µL of 5 mmol/L HHL solution substrate were added and the reaction mixture was incubated at 37°C for 20 min. Finally, 250 µL of 1 mol/L HCl were added to stop the reaction and 10 µL of solution were used to analyze HA release from HHL by reversed-phase HPLC with the same condition described above and detected at the wavelength of λ = 228 nm. Controls with equal volume of BBS as sample substitute were included for each measurement, and the blank experiment was executed with premixing 250 µL of 1 mol/L HCl and 2 µL of ACE crude extracts to inhibit the activity of ACE, firstly.
The evaluation of ACE inhibition was based on the measurement of the HA peak areas, and the degree of ACE inhibition (%) was calculated according to Eq.1: [drawing 1] (Eq.1) […]

For a further data set, the system named is ACE. The settings on record: literature value; cited from earlier work. An excerpt:
In the past decades, researchers have focused on the natural nutraceutical resources and investigated the potential antihypertensive activity in vitro by ACE-inhibitory activity, [5]. Some natural phytochemicals from plants, including rutin, quercetin glycoside, epicatechin-tetramer and cyanidin-3-O-sambubioside have been extensively studied as a substitute for chemo-pharmaceuticals [6]–[8]. Also, some antihypertensive peptides have been identified from hydrolyzed or fermented milk and other dietary sources. Among them, the Isoleucine-Proline-Proline (IPP) and Valine-Proline- ...

Another data set relates to SERCA 2a gene. The data set can be described thus: Quantitative real time-PCR of SERCA 2a gene mRNA in SHR heart. Format: in vivo, rat. The following applies: 3 h after feeding the peptide, GAPDH reference, three biological replicates. How it is done: Quantitative real time-PCR (qRT-PCR) analysis was performed using SYBR Premix EX Taq (TaKaRa) on a Rotor-Gene R[…] detection system (Corbett Research) as described by Zhang et al. (2010) with the exception of the annealing temperature at 58 °C when using the primers […]) and […]), [26]. Gene GAPDH was used as reference gene with primer […]) and […]). Three biological replicates were used, and each with three technical repeats.

As for `C[C@H](CS)C(=O)N1CCC[C@H]1C(=O)O` [captopril], the “effect on postprandial blood glucose levels” value in data set [1] is “no significant effect”. Besides, the “decrease in SBP” value in the data set on SHR (male SHR, 50 mg/kg, 4–6 h after administration) was “about 53±4 mmHg”.
In the case of Isoleucine-Proline-Proline [IPP], in data set [2], the “dose-dependence of the lowering SBP effect” value is listed as “dose-dependent effect”. Besides, the “ACE inhibition rate (%)” value in the data set on ACE from rabbit lungs is 56.97±2.40^a %. The IC50 with ACE is 5 µM. In addition, in the data set with SERCA 2a gene, the “transcriptional level of SERCA 2a gene” value is reported as 3.80 times of the control. In addition, the “decrease in SBP” value in the data set on SHR (SHR, 0.3 mg/kg BW) is 21.7±4.1 mmHg.
Consider “Isoleucine-Proline-Proline-Valine- Proline-Proline [IPPVPP]”, for which the “dose-dependence of the lowering SBP effect” value in data set [2] is listed as “did not”. In addition, the “ACE inhibition rate (%)” value in the data set on ACE from rabbit lungs is 13.17±0.25^c %. For the same compound, the “transcriptional level of SERCA 2a gene” value in the data set on SERCA 2a gene was 2.70 times of the control.
Regarding “KVLPVPQ [heptapeptide KVLPVPQ (β-casein 169–175aa)]”, the “maximal decrease in SBP” value in the data set with SHR (SHR, 2 mg/kg BW) is 31.5±5.6 mmHg.
Valine-Proline-Proline [VPP]: the “ACE inhibition rate (%)” value in the data set with ACE from rabbit lungs is 37.62±6.68^b %. Besides, the IC50 with ACE is 9 µM.
In the case of “Valine-Proline-Proline-Isoleucine-Proline-Proline [VPPIPP]”, the “relative lowering SBP rate, comparison between peptides” value in data set [2] (0.75 mg/kg BW, intragastric) is “did not show significantly different from IPPVPP and IPP”. The “dose-dependence of the lowering SBP effect” value in data set [2] is “dose-dependent effect”. Further, the “ACE inhibition rate (%)” value with ACE from rabbit lungs is reported as 34.71±4.38^b %. Besides, the “transcriptional level of SERCA 2a gene” value in the data set on SERCA 2a gene was 3.98 times of the control.
Take “YGLF [whey protein derived tetrapeptide]”: the “reduction of SBP” value in the data set with SHR (SHR, subcutaneous, 0.1 mg/kg BW) is recorded as 23±4 mmHg.

Source of the values: publication PMC3640069 (PLoS ONE, 2013).
